Assay results from patent publication US6461997B1, “Triazole sulfones having herbicidal activity” (Monsanto Technology LLC, priority 1999, dated 2002).

Key:
[1] = tested on: DIGSA (large crabgrass); experiment: Pre-emergence herbicidal activity, warm season; type: in vivo, Digitaria sanguinalis; conditions: GR80 = lowest tested rate (300, 100, 30, 10 g/ha) with 80% or greater inhibition; approx. 14 days after treating; 30/21° C.
How it was run: (§1)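 Under 18/13 °C (ALOMY, POLCO) or 30/21 °C (PANMI, DIGSA) day/night, pre-emergence soil-surface treatments at 300, 100, 30 and 10 g/ha were evaluated after roughly 14 days. GR80 reflects percent inhibition relative to untreated plants.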

[2] = tested on: CHEAL (common lambsquarters); experiment: Pre-emergence herbicidal activity, warm season; type: in vivo, Chenopodium album; conditions: GR80 = lowest tested rate (300, 100, 30, 10 g/ha) with 80% or greater inhibition; approx. 14 days after treating; 30/21° C.
How it was run: (§2)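 GR80 values derive from percent inhibition relative to untreated plants, read roughly 14 days after sowing and pre-emergence soil-surface treatment (compound in 50:50 acetone/water; rates typically 10, 30, 100, 300 g/ha). Warm-season weeds grew at 30/21° C day/night, cool-season ones at 18/13° C; an asterisk marks activity without reaching 80% at the highest rate.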

[3] = tested on: LOLMG (annual ryegrass); experiment: Pre-emergence herbicidal activity, cool season; type: in vivo, Lolium multiflorum; conditions: GR80 = lowest tested rate (300, 100, 30, 10 g/ha) with 80% or greater inhibition; approx. 14 days after treating; 18/13° C.
Method: (§3) Tables 5 to 8 summarize results of tests conducted as described below to determine the pre-emergence herbicidal activity, in the form of a GR80 value, of illustrative compounds of this invention. […] Compounds of the invention were typically applied at rates of 300, 100, 30, and 10 g/ha. Where herbicidal activity was evident but 80% inhibition was not achieved at the highest rate tested, an asterisk (*) is shown in the following tables.
(§4) The pre-emergence tests were conducted by the following procedure. Topsoil was sieved to pass through a 1.27 cm screen. Fertilizer was added to the topsoil and the mixture was then sterilized by heating. The topsoil mixture was placed in a pot and compacted to a depth of 1.0 to 1.25 cm from the top of the pot. Seeds of each of several monocotyledonous and dicotyledonous annual plant species were placed on top of the soil. Additional soil was subsequently placed over the seeds to level-fill the pot. A known amount of each test compound dissolved or suspended in an appropriate organic solvent was diluted with a 50:50 mix of acetone and water and applied to the surface of the soil. After treatment the plants were placed in a greenhouse where they received 0.64 cm of overhead irrigation. All subsequent watering consisted of a light overhead mist and/or subirrigation as needed for germination and growth. Tables 5 and 6 below relate to warm season plant species which were placed after pre-emergence treatment in a greenhouse with a 30/21° C. day/night temperature regime. Tables 7 and 8 below relates to cool season plant species placed after pre-emergence treatment in a greenhouse or growth chamber with an 18/13° C. day/night temperature regime.
(§5) Approximately 14 days after planting and treating, the plants were observed and herbicidal efficacy recorded as percent inhibition by comparison with untreated plants.
(§6) The plant species usually regarded as weeds which were utilized in the tests are identified in the tables below according to the following legend, in which “d” indicates a dicotyledonous species and “m” a monocotyledonous species. All monocotyledonous species included in the tests herein are grasses.

[4] = tested on: BROTE (downy brome); experiment: Pre-emergence herbicidal activity, cool season; type: in vivo, Bromus tectorum; conditions: GR80 = lowest tested rate (300, 100, 30, 10 g/ha) with 80% or greater inhibition; approx. 14 days after treating; 18/13° C.
Method: as §3, §4, §5, §6

[5] = tested on: SINAR (wild mustard); experiment: Pre-emergence herbicidal activity, cool season; type: in vivo, Sinapis arvensis; conditions: lowest tested rate with 80% or greater inhibition; rates 300, 100, 30, 10 g/ha; about 14 days
How it was run: as §2

[6] = tested on: BRAPP (broadleaf signalgrass); experiment: Pre-emergence herbicidal activity, warm season; type: in vivo, Brachiaria platyphylla; conditions: GR80 = lowest tested rate (300, 100, 30, 10 g/ha) with 80% or greater inhibition; approx. 14 days after treating; 30/21° C.
How it was run: as §2

[7] = tested on: VERPE (creeping speedwell); experiment: Pre-emergence herbicidal activity, cool season; type: in vivo, Veronica persicaria; conditions: lowest tested rate with 80% or greater inhibition; rates 300, 100, 30, 10 g/ha; about 14 days
How it was run: as §2

[8] = tested on: AGSST (creeping bentgrass); experiment: Pre-emergence herbicidal activity, cool season; type: in vivo, Agrostis stolonifera; conditions: GR80 = lowest tested rate (300, 100, 30, 10 g/ha) with 80% or greater inhibition; approx. 14 days after treating; 18/13° C.
How it was run: as §2

[9] = tested on: SETFA (giant foxtail); experiment: Pre-emergence herbicidal activity, warm season; type: in vivo, Setaria faberi; conditions: GR80 = lowest tested rate (300, 100, 30, 10 g/ha) with 80% or greater inhibition; approx. 14 days after treating; 30/21° C.
How it was run: as §2

[10] = tested on: POROL (common purslane); experiment: Pre-emergence herbicidal activity, warm season; type: in vivo, Portulaca oleracea; conditions: GR80 = lowest tested rate (300, 100, 30, 10 g/ha) with 80% or greater inhibition; approx. 14 days after treating; 30/21° C.
How it was run: as §2

[11] = tested on: SORVU (shattercane); experiment: Pre-emergence herbicidal activity, warm season; type: in vivo, Sorghum vulgare; conditions: GR80 = lowest tested rate (300, 100, 30, 10 g/ha) with 80% or greater inhibition; approx. 14 days after treating; 30/21° C.
Method: as §3, §4, §5, §6

[12] = tested on: SASKR (russian thistle); experiment: Pre-emergence herbicidal activity, cool season; type: in vivo, Salsola kali; conditions: lowest tested rate with 80% or greater inhibition; rates 300, 100, 30, 10 g/ha; about 14 days
How it was run: as §2

[13] = tested on: LAMPU (purple deadnettle); experiment: Pre-emergence herbicidal activity, cool season; type: in vivo, Lamium purpureum; conditions: lowest tested rate with 80% or greater inhibition; rates 300, 100, 30, 10 g/ha; about 14 days
How it was run: as §2

[14] = tested on: SORHA (johnsongrass (seedling)); experiment: Pre-emergence herbicidal activity, warm season; type: in vivo, Sorghum halepense; conditions: GR80 = lowest tested rate (300, 100, 30, 10 g/ha) with 80% or greater inhibition; approx. 14 days after treating; 30/21° C.
How it was run: as §2

[15] = tested on: SETVI (green foxtail); experiment: Pre-emergence herbicidal activity, cool season; type: in vivo, Setaria viridis; conditions: GR80 = lowest tested rate (300, 100, 30, 10 g/ha) with 80% or greater inhibition; approx. 14 days after treating; 18/13° C.
How it was run: as §2

[16] = tested on: PANMI (wild proso millet); experiment: Pre-emergence herbicidal activity, warm season; type: in vivo, Panicum miliaceum; conditions: GR80 = lowest tested rate (300, 100, 30, 10 g/ha) with 80% or greater inhibition; approx. 14 days after treating; 30/21° C.
How it was run: as §1

[17] = tested on: GALAP (catchweed bedstraw); experiment: Pre-emergence herbicidal activity, cool season; type: in vivo, Galium aparine; conditions: lowest tested rate with 80% or greater inhibition; rates 300, 100, 30, 10 g/ha; about 14 days
How it was run: as §2

[18] = tested on: POLCO (wild buckwheat); experiment: Pre-emergence herbicidal activity, cool season; type: in vivo, Polygonum convolvulus; conditions: lowest tested rate with 80% or greater inhibition; rates 300, 100, 30, 10 g/ha; about 14 days
How it was run: as §1

[19] = tested on: ECHCG (barnyardgrass); experiment: Pre-emergence herbicidal activity, warm season; type: in vivo, Echinochloa crus-galli; conditions: GR80 = lowest tested rate (300, 100, 30, 10 g/ha) with 80% or greater inhibition; approx. 14 days after treating; 30/21° C.
How it was run: as §2

[20] = tested on: STEME (common chickweed); experiment: Pre-emergence herbicidal activity, cool season; type: in vivo, Stellaria media; conditions: lowest tested rate with 80% or greater inhibition; rates 300, 100, 30, 10 g/ha; about 14 days
How it was run: as §2

[21] = tested on: AMARE (redroot pigweed); experiment: Pre-emergence herbicidal activity, warm season; type: in vivo, Amaranthus retroflexus; conditions: GR80 = lowest tested rate (300, 100, 30, 10 g/ha) with 80% or greater inhibition; approx. 14 days after treating; 30/21° C.
Method: as §3, §4, §5, §6

[22] = tested on: ALOMY (blackgrass); experiment: Pre-emergence herbicidal activity, cool season; type: in vivo, Alopecurus myosuroides; conditions: GR80 = lowest tested rate (300, 100, 30, 10 g/ha) with 80% or greater inhibition; approx. 14 days after treating; 18/13° C.
How it was run: as §1

[23] = tested on: ABUTH (velvetleaf); experiment: Pre-emergence herbicidal activity, warm season; type: in vivo, Abutilon theophrasti; conditions: GR80 = lowest tested rate (300, 100, 30, 10 g/ha) with 80% or greater inhibition; approx. 14 days after treating; 30/21° C.
Method: as §3, §4, §5, §6

[24] = tested on: CONAR (field bindweed); experiment: Pre-emergence herbicidal activity, warm season; type: in vivo, Convolvulus arvensis; conditions: GR80 = lowest tested rate (300, 100, 30, 10 g/ha) with 80% or greater inhibition; approx. 14 days after treating; 30/21° C.
Method: as §3, §4, §5, §6

Compound	Pre-emergence activity (GR80) DIGSA [1]	Pre-emergence activity (GR80) CHEAL [2]	Pre-emergence activity (GR80) LOLMG [3]	Pre-emergence activity (GR80) BROTE [4]	Pre-emergence activity GR80, SINAR [5]	Pre-emergence activity GR80, VERPE [7]	Pre-emergence activity (GR80) AGSST [8]	Pre-emergence activity (GR80) SORVU [11]	Pre-emergence activity GR80, SASKR [12]	Pre-emergence activity GR80, LAMPU [13]	Pre-emergence activity (GR80) SETVI [15]	Pre-emergence activity (GR80) PANMI [16]	Pre-emergence activity GR80, GALAP [17]	Pre-emergence activity GR80, POLCO [18]	Pre-emergence activity GR80, STEME [20]	Pre-emergence activity (GR80) ALOMY [22]	other results
CCCN(CC)C(=O)n1cnc(S(=O)(=O)C(F)(F)C(F)(F)Br)n1 [Example 75]	300 g/ha	300 g/ha	300 g/ha	300 g/ha	30 g/ha	10 g/ha	30 g/ha	300 g/ha	10 g/ha	30 g/ha	30 g/ha	100 g/ha	300 g/ha	[empty]	30 g/ha		Pre-emergence activity (GR80) BRAPP [6]: 300 g/ha; Pre-emergence activity (GR80) SETFA [9]: 300 g/ha; Pre-emergence activity (GR80) POROL [10]: 300 g/ha; Pre-emergence activity (GR80) SORHA [14]: 300 g/ha; Pre-emergence activity (GR80) ECHCG [19]: 100 g/ha
COCCN(C)C(=O)n1cnc(S(=O)(=O)C(F)(F)Cl)n1 [Example 88]	300 g/ha		300 g/ha	300 g/ha	30 g/ha	30 g/ha	100 g/ha		30 g/ha	10 g/ha	100 g/ha	300 g/ha	100 g/ha	300 g/ha	10 g/ha	300 g/ha	Pre-emergence activity (GR80) AMARE [21]: 100 g/ha
CN(C(=O)n1cnc(S(=O)(=O)C(F)(F)Cl)n1)C1CCCCC1 [Example 91]			300 g/ha	300 g/ha	10 g/ha	10 g/ha	100 g/ha	300 g/ha	30 g/ha	30 g/ha	300 g/ha	100 g/ha	100 g/ha	100 g/ha	30 g/ha	300 g/ha	Pre-emergence activity (GR80) ABUTH [23]: 300 g/ha
CN(Cc1ccccc1)C(=O)n1cnc(S(=O)(=O)C(F)(F)Cl)n1 [Example 92]		300 g/ha			[empty]	[empty]			[empty]	[empty]			[empty]	[empty]	[empty]		Pre-emergence activity (GR80) CONAR [24]: 300 g/ha
